Assay [1] in a line: Heparin translocation: clotting time after rectal administration of penetration composition. It counts as in vivo, male BALB/c mice. Conditions: for Clotting time, measured at follow times after injection: 5 min / Clotting time, measured at follow times after injection: 15 min / Clotting time, measured at follow times after injection: 30 min / Clotting time, measured at follow times after injection: 60 min / Clotting time, measured at follow times after injection: 90 min / Clotting time, measured at follow times after injection: 120 min / Clotting time, measured at follow times after injection: 150 min / Clotting time, measured at follow times after injection: 0: rectal 100 μl/mouse, heparin 10 mg/ml composition, one mouse per line; for Clotting time, measured at follow times after injection: 60 min / Clotting time, measured at follow times after injection: 90 min / Clotting time, measured at follow times after injection: 120 min / Clotting time, measured at follow times after injection: 150 min: * = clotting appeared but did not progress. The protocol:
SEQ ID NO: 36 was hydrophobized via acylation of the free amino groups of the two lysine residues at the C-terminus of the penetrating peptide with a myristoyl. Acylation with myristoyl was achieved by incubating the peptide with myristoyl chloride in a molar ratio of 1:10, under basic pH conditions in the presence of appropriate solvents (benzyl benzoate and di-methyl formamide, with 1% bicarbonate). The hydrophobized peptide was then incorporated into the penetration composition, which further contained heparin, and the counter cation 1-butyl-3-methylimidazolium chloride (BMIC). Additional components of the penetration composition are specified in Table 5.
Four male BALB/c mice, 9–10 weeks old, were deprived of food, 18 hours prior to the experiment. The mice were anesthetized by i.p. injection of 0.05 ml of a mixture of 0.15 ml xylazine+0.85 ml of ketamin. The penetration composition was then rectally administered to the mice, 100μl/mouse, using a plastic tip covered with a lubricant. Penetration was assessed via measurement of clotting time, at different time intervals after heparin administration. Five minutes post administration the tip of the tail was cut and a 50 μl blood sample was drawn into a glass capillary. The capillary was broken at different time intervals, until clot formation was observed. This was repeated at 15, 30, 60, 90, 120 and 150 minutes post administration. The animals were subsequently sacrificed.
In similar experiments, a control peptide (SEQ ID NO:16), lacking the penetrating peptide-sequence, was similarly hydrophobized and incorporated into the penetration composition of Table 5 and then rectally administered to the mice.

Assay [2] in a line: Insulin translocation with HMIC as counter ion: blood glucose levels after i.p. or rectal administration (FIG. 3). It counts as in vivo, male BALB/c mice. The note with it: 70 ul/mouse, 0.2 IU insulin. How it is done: SEQ ID NO: 36 (also called IBW-002V2) and SEQ ID NO: 16 (also called IBW-001) were hydrophobized via acylation of the free amino groups of the two lysine residues at the C-terminus of the penetrating peptides with a myristoyl. Acylation with myristoyl was achieved by incubating the peptide with myristoyl chloride in a molar ratio of 1:10, under basic pH conditions in the presence of appropriate solvents (benzyl benzoate and di-methyl formamide, with 1% bicarbonate). The hydrophobized peptides were then incorporated into the penetration composition, which further contained insulin, and the counter cation 1-hexyl-3-methylimidazolium chloride (HMIC). Additional components of the penetration composition are specified in Table 7.
Eight male BALB/c mice, 9–10 weeks old, were deprived of food, 18 hours prior to the experiment. The animals were divided into 4 groups. Each preparation was administered to 2 groups of mice either i.p. (70 ul/mouse, containing 0.2 IU insulin) or rectal (70 ul/mouse, containing 0.2 IU insulin). Blood glucose levels were measured at various time intervals post administration, in blood samples drawn from the tip of the tail. Glucose levels were plotted against time post insulin administration (See FIG. 3).

The nature of assay [3]: Insulin translocation with BKC as counter ion: blood glucose levels after i.p. or rectal administration (FIG. 4, Table 9). Format: in vivo, male SD rats. Conditions: rectal administration, rats, BKC counter ion (FIG. 4). The protocol:
SEQ ID NO: 36 (also called IBW-002V2) was hydrophobized via acylation of the free amino groups of the two lysine residues at the C-terminus of the penetrating peptide with a myristoyl. Acylation with myristoyl was achieved by incubating the peptide with myristoyl chloride in a molar ratio of 1:10, under basic pH conditions in the presence of appropriate solvents (benzyl benzoate and di-methyl formamide, with 1% bicarbonate). The hydrophobized peptide was then incorporated into the penetration composition, which further contained a lyophilizate of (1) insulin, (2) the counter cation Benzalkonium Chloride (BKC), and (3) phytic acid at a ratio of 1:0.5:0.5. Additional components of the penetration composition are specified in Table 8.
Twelve male SD rats, 160–190 gr, were deprived of food, 18 hours prior to the experiment. The animals were divided into groups. The preparations were administered as follows: Rats #1,2-rectal PBS 200 ul, rats #3,4-rectal 200 ul penetration composition as specified above without peptide (5 IU insulin), rat #5-i.p. 200 ul penetration composition with peptide (1 IU insulin), rats #6,7-rectal 200 ul penetration composition with peptide (5 IU insulin). Blood glucose levels were measured at various time intervals post administration, in blood samples drawn from the tip of the tail. Glucose levels were plotted against time post insulin administration (See FIG. 4).

Where “and” joins values, the source holds several entries; their conditions need not be identical. Equal values may be shown once.

These results are taken from patent US7115707B2, “Amino acid sequences capable of facilitating penetration across a biological barrier” (Chiasma, Inc., priority 2002, dated 2006).

Regarding “GGKGGK (Linker) [SEQ ID NO: 16, reference compound]”, in assay [1], the “Clotting time, measured at follow times after injection: 5 min” value is recorded as 1′; the “Clotting time, measured at follow times after injection: 15 min” value was 1′; the “Clotting time, measured at follow times after injection: 30 min” value is recorded as 2′; the “Clotting time, measured at follow times after injection: 60 min” value is reported as 5′. Moreover, in assay [1], the “Clotting time, measured at follow times after injection: 90 min” value is given as 4′; the “Clotting time, measured at follow times after injection: 120 min” value was 2′; the “Clotting time, measured at follow times after injection: 150 min” value is given as 3′; the “Clotting time, measured at follow times after injection: 0” value is 1′. Also, the average clotting time entry in assay [1] (rectal, heparin composition of Table 5, compared to the full conjugate of the penetrating peptide) was “only slightly elongated”. Further, the blood glucose levels entry in assay [2] (i.p.) is recorded as “significant drop”. The blood glucose levels entry in assay [2] (rectal) is “No change”.
As to “AcMYYDITLALAGICQSARLVQQLAGGGKGGKNH2 (Ac-MYYDITLALAGICQSARLVQQLAGGGKGGK-NH2) [SEQ ID NO: 36, penetrating peptide]”, in assay [3], the blood glucose levels entry is “dropped gradually and significantly”. Further, in assay [1], the “Clotting time, measured at follow times after injection: 5 min” value is 1′ (2×) and 2′ (2×); the “Clotting time, measured at follow times after injection: 15 min” value was 1.5′ and 3′ and 1′ (2×); the “Clotting time, measured at follow times after injection: 30 min” value was 1.5′ (2×) and 2′ and 3′; the “Clotting time, measured at follow times after injection: 60 min” value is 8′* and 9′* and 2.5′ and 6′. For the same substance, in assay [1], the “Clotting time, measured at follow times after injection: 90 min” value is 9′* (2×) and 7′* and 5′; the “Clotting time, measured at follow times after injection: 120 min” value was 15′* and 7′* and 3′ and 8′*; the “Clotting time, measured at follow times after injection: 150 min” value is 17′* and 9′* and 4′ and 6′; the “Clotting time, measured at follow times after injection: 0” value is 1.5′ (2×) and 1′ and 2.5′. In addition, the blood glucose levels entry in assay [2] (i.p.) was “dropped gradually and significantly”. Also, the blood glucose levels result in assay [2] (rectal) is “dropped gradually and significantly”.
